Results reported in the supplement of paper PMC13380429.

What was measured:
Conditions in all cases: 72 h
Caco-2 [1] = test: cell viability relative to DMSO; higher = less toxic
Calu-3 [2] = test: as above
HepG2 [3] = test: as above
U2OS [4] = test: as above
Vero E6 [5] = test: as above
Calu-3 [6] = test: relative viability EC50 (midpoint between 100% and the lowest measured viability); higher = less toxic
HepG2 [7] = test: as above
U2OS [8] = test: as above
Vero E6 [9] = test: as above
Caco-2 [10] = test: drug sensitivity score (DSS) for viability; higher = more toxic; extreme values may be limits of the assay
Calu-3 [11] = test: as above
HepG2 [12] = test: as above
U2OS [13] = test: as above
Vero E6 [14] = test: as above
Caco-2 [15] = test: relative viability EC50 (midpoint between 100% and the lowest measured viability); higher = less toxic

SMILES	cell viability (Caco-2 [1]; 1 nM) [%]	cell viability (Caco-2 [1]; 10 nM) [%]	cell viability (Caco-2 [1]; 100 nM) [%]	cell viability (Caco-2 [1]; 1000 nM) [%]	cell viability (Caco-2 [1]; 10000 nM) [%]	cell viability (Calu-3 [2]; 1 nM) [%]	cell viability (Calu-3 [2]; 10 nM) [%]	cell viability (Calu-3 [2]; 100 nM) [%]	cell viability (Calu-3 [2]; 1000 nM) [%]	cell viability (Calu-3 [2]; 10000 nM) [%]	cell viability (HepG2 [3]; 1 nM) [%]	cell viability (HepG2 [3]; 10 nM) [%]	cell viability (HepG2 [3]; 100 nM) [%]	cell viability (HepG2 [3]; 1000 nM) [%]	cell viability (HepG2 [3]; 10000 nM) [%]	cell viability (U2OS [4]; 1 nM) [%]	cell viability (U2OS [4]; 10 nM) [%]	cell viability (U2OS [4]; 100 nM) [%]	cell viability (U2OS [4]; 1000 nM) [%]	cell viability (U2OS [4]; 10000 nM) [%]	cell viability (Vero E6 [5]; 1 nM) [%]	cell viability (Vero E6 [5]; 10 nM) [%]	cell viability (Vero E6 [5]; 100 nM) [%]	cell viability (Vero E6 [5]; 1000 nM) [%]	cell viability (Vero E6 [5]; 10000 nM) [%]	relative viability EC50 (Calu-3 [6]) [µM]	relative viability EC50 (HepG2 [7]) [µM]	relative viability EC50 (U2OS [8]) [µM]	relative viability EC50 (Vero E6 [9]) [µM]	drug sensitivity score (Caco-2 [10])	drug sensitivity score (Calu-3 [11])	drug sensitivity score (HepG2 [12])	drug sensitivity score (U2OS [13])	drug sensitivity score (Vero E6 [14])	relative viability EC50 (Caco-2 [15]) [µM]
C[C@H](NC(=O)c1sccc1OCc1ccc(Cl)cc1)c1ccccc1	97.9	103	104	97	67.7	102	96	99.6	107	98.1	104	108	105	103	75.8	92.3	103	98.7	99.9	88.6	113	107	108	100	96.8	> 10	> 10	> 10	> 10	1.9	0	0.7	0	0	
COc1cc(NC(=O)c2ccccn2)ccc1Cl	100	94.5	95.3	90.8	92.3						92.9	99.2	91	102	94.9	100	95.3	101	99.4	96.3	101	99	96.3	102	95.3		> 10	> 10	> 10	0		0	0	0	> 10
O=C(Nc1ccc(CN2CCOCC2)cc1)c1ccc(-c2cccc(Cl)c2)o1	110	102	99.9	104	95.7	98.3	95.4	97.3	97.8	91	107	104	97.8	93.7	99.5						100	100	102	99.4	102	> 10	> 10		> 10	0	0	0		0	> 10
Nc1nc2ccc(OC(F)(F)F)cc2s1 [riluzole]	97.4	90.4	91.7	103	96.9	96	100	109	97.5	103	97.9	106	96.6	94.7	105						93.4	98.1	98.7	99.5	104	> 10	> 10		> 10	0	0	0		0	> 10
Fc1ccccc1CNCc1ccc(-c2ccnc3[nH]ccc23)cc1 [OXA-06]	91.3	103	91.5	101	90.2	111	106	100	139	139	105	90.4	108	107	86.9	98.6	102	96.8	97.2	69.8	103	95.6	97.3	97.6	85.4	> 10	> 10		> 10	0	0	0	1.8	0.4	> 10
CCCC(C)NC(=O)c1ccc(Cl)c(Cl)c1 (stereo unspecified)	120	98	104	117	94.5	103	77.1	99	77.4	104	97.1	104	92.8	98	98.6						104	101	99.3	103	99.8	> 10	> 10		> 10	0	0	0		0	> 10
C[C@@H](CN1CCC(n2c(=O)[nH]c3cc(Cl)ccc32)CC1)NC(=O)c1ccc2ccccc2c1	93.8	105	101	97.4	79.5	102	99.7	96.2	94.2	82.1	99.9	102	85.6	94.1	82.9	106	102	100	98.1	91.1						> 10	> 10	> 10		1	0.7	0.9	0		> 10
O=C1CN(/N=C/c2ccc(-c3ccc([N+](=O)[O-])cc3)o2)C(=O)N1 [dantrolene]	110	97.1	91.7	97.8	89.7	102	95	106	102	112	102	101	95.6	101	107	96.8	101	96.1	103	95.6						> 10	> 10	> 10		0	0	0	0		> 10
